Data from patent US20260014175A1, “PHARMACEUTICAL COMPOSITION FOR ORAL ADMINISTRATION OF CANNABINOIDS” (EM[…]., priority 2022, published 2026).

Test: Compatibility of CBD / CBD-containing SNEDDS with excipients (CBD release in SGF, SIF, FaSSIF)
Format: physicochemical
Experimental: A number of different compositions were prepared and tested in order to determine the compatibility of CBD and/or CBD-containing self-nanoemulsifying drug delivery systems (SNEDDS) with various excipients.

SMILES	compatibility with CBD/CBD-containing SNEDDS
CCCCCCCCCCCCOS(=O)(=O)[O-].[Na+] [Sodium lauryl sulfate (SLS), Sodium lauryl sulfate]	no signs of incompatibility
O=C([O-])CN(CCN(CC(=O)[O-])CC(=O)O)CC(=O)O.[Na+].[Na+] [EDTA sodium]	no signs of incompatibility
NCC(=O)O [Glycine]	no signs of incompatibility
